{
  "source": "PubChem BioAssay AID328",
  "about": "(DTP/NCI, 2004)",
  "tested_on": "BDF1 mice, P388 leukemia ip, median survival T/C",
  "test": "NCI In Vivo Anticancer Drug Screen. Data for tumor model P388 Leukemia (intraperitoneal) in B6D2F1 (BDF1) mice",
  "conditions": "endpoint: median survival time, higher = longer survival",
  "in_short": "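Steps: implant the tumour, treat one group with compound and another with vehicle, record survival, then divide treated by control.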",
  "key": {"[1]": {"conditions": "dose: 50.0 mg/kg/injection, schedule: Q01DX009 (ip), vehicle: saline with Tween-80"}, "[2]": {"conditions": "dose: 100.0 mg/kg/injection, schedule: Q01DX009 (ip), vehicle: saline with Tween-80"}, "[3]": {"conditions": "dose: 200.0 mg/kg/injection, schedule: Q01DX009 (ip), vehicle: saline with Tween-80"}, "[4]": {"conditions": "dose: 400.0 mg/kg/injection, schedule: Q01DX009 (ip), vehicle: saline with Tween-80"}},
  "note": "Several values for one entry are separate records, joined by “and”; a condition that tells them apart may be missing. Equal values may be shown once. Inconclusive results and toxic doses are left out.",
  "data": [
    {"compound": "Clc1cc(Cl)c2c(c1)COCO2", "values": [
      {"measurement": "T/C", "setting": "dose: 25.0 mg/kg/injection, schedule: Q01DX009 (ip), vehicle: Klucel (hydroxypropylcellulose) (HPC)", "result": "104 % of control"},
      {"measurement": "T/C", "setting": "dose: 50.0 mg/kg/injection, schedule: Q01DX009 (ip), vehicle: Klucel (hydroxypropylcellulose) (HPC)", "result": "100 % of control"},
      {"measurement": "T/C", "setting": "dose: 100.0 mg/kg/injection, schedule: Q01DX009 (ip), vehicle: Klucel (hydroxypropylcellulose) (HPC)", "result": "109 % of control"},
      {"measurement": "T/C", "setting": "dose: 100.0 mg/kg/injection, schedule: Q04DX003 (ip), vehicle: Klucel (hydroxypropylcellulose) (HPC)", "result": "90 % of control"},
      {"measurement": "T/C", "setting": "dose: 200.0 mg/kg/injection, schedule: Q01DX009 (ip), vehicle: Klucel (hydroxypropylcellulose) (HPC)", "result": "90 % of control"},
      {"measurement": "T/C", "setting": "dose: 200.0 mg/kg/injection, schedule: Q04DX003 (ip), vehicle: Klucel (hydroxypropylcellulose) (HPC)", "result": "100 % of control"},
      {"measurement": "T/C", "setting": "dose: 400.0 mg/kg/injection, schedule: Q04DX003 (ip), vehicle: Klucel (hydroxypropylcellulose) (HPC)", "result": "100 % of control"}
    ]},
    {"compound": "COC(=O)C12OCC34C(CC5C(C)=C(O)C(=O)CC5(C)C3C(O)C1O)OC(=O)C(OC(=O)CC(C)C(C)C)C24", "note": "(stereo unspecified)", "values": [
      {"measurement": "T/C", "setting": "dose: 2.0 mg/kg/injection, schedule: Q01DX009 (ip), vehicle: saline + alcohol", "result": "156 % of control"},
      {"measurement": "T/C", "setting": "dose: 4.0 mg/kg/injection, schedule: Q01DX009 (ip), vehicle: saline + alcohol", "result": "176 % of control"},
      {"measurement": "T/C", "setting": "dose: 7.0 micrograms/kg/injection, schedule: Q01DX009 (ip), vehicle: saline + alcohol", "result": "100 % of control"},
      {"measurement": "T/C", "setting": "dose: 15.0 micrograms/kg/injection, schedule: Q01DX009 (ip), vehicle: saline + alcohol", "result": "95 % of control and 119 % of control"},
      {"measurement": "T/C", "setting": "dose: 27.5 micrograms/kg/injection, schedule: Q01DX009 (ip), vehicle: saline", "result": "120 % of control"},
      {"measurement": "T/C", "setting": "dose: 31.0 micrograms/kg/injection, schedule: Q01DX009 (ip), vehicle: saline + alcohol", "result": "107 % of control and 113 % of control"},
      {"measurement": "T/C", "setting": "dose: 62.0 micrograms/kg/injection, schedule: Q01DX009 (ip), vehicle: saline + alcohol", "result": "115 % of control and 122 % of control"},
      {"measurement": "T/C", "setting": "dose: 440.0 micrograms/kg/injection, schedule: Q01DX009 (ip), vehicle: saline", "result": "150 % of control"},
      {"measurement": "T/C", "setting": "dose: 500.0 micrograms/kg/injection, schedule: Q01DX009 (ip), vehicle: saline + alcohol", "result": "123 % of control"},
      {"measurement": "T/C", "setting": "dose: 1000.0 micrograms/kg/injection, schedule: Q01DX009 (ip), vehicle: saline + alcohol", "result": "163 % of control"},
      {"measurement": "T/C", "setting": "dose: 2000.0 micrograms/kg/injection, schedule: Q01DX009 (ip), vehicle: saline + alcohol", "result": "168 % of control"},
      {"measurement": "T/C", "setting": "dose: 4000.0 micrograms/kg/injection, schedule: Q01DX009 (ip), vehicle: saline + alcohol", "result": "163 % of control"}
    ]},
    {"compound": "Ic1ccc(N=Cc2cccs2)cc1", "values": [
      {"measurement": "T/C", "setting": "[1]", "result": "117 % of control"},
      {"measurement": "T/C", "setting": "[2]", "result": "99 % of control"},
      {"measurement": "T/C", "setting": "[3]", "result": "97 % of control"},
      {"measurement": "T/C", "setting": "[4]", "result": "108 % of control"}
    ]},
    {"compound": "COC(=O)C(C)C(C)=O", "note": "(stereo unspecified)", "values": [
      {"measurement": "T/C", "setting": "dose: 100.0 mg/kg/injection, schedule: Q04DX003 (sc), vehicle: olive oil, sesame oil, peanut oil", "result": "100 % of control"},
      {"measurement": "T/C", "setting": "dose: 200.0 mg/kg/injection, schedule: Q04DX003 (sc), vehicle: olive oil, sesame oil, peanut oil", "result": "104 % of control"},
      {"measurement": "T/C", "setting": "dose: 400.0 mg/kg/injection, schedule: Q04DX003 (sc), vehicle: olive oil, sesame oil, peanut oil", "result": "100 % of control"}
    ]},
    {"compound": "O=C1Nc2ccc(Br)cc2C1=Nc1cccnc1", "values": [
      {"measurement": "T/C", "setting": "[1]", "result": "100 % of control"},
      {"measurement": "T/C", "setting": "[2]", "result": "104 % of control"},
      {"measurement": "T/C", "setting": "[3]", "result": "111 % of control"},
      {"measurement": "T/C", "setting": "[4]", "result": "111 % of control"}
    ]},
    {"compound": "ClCCN(CCCl)CCNc1ccnc2cc(Cl)ccc12", "values": [
      {"measurement": "T/C", "setting": "dose: 0.13 mg/kg/injection, schedule: Q01DX009 (ip), vehicle: saline", "result": "105 % of control"},
      {"measurement": "T/C", "setting": "dose: 0.5 mg/kg/injection, schedule: Q01DX009 (ip), vehicle: saline", "result": "100 % of control"},
      {"measurement": "T/C", "setting": "dose: 1.0 mg/kg/injection, schedule: Q04DX003 (ip), vehicle: saline", "result": "172 % of control"},
      {"measurement": "T/C", "setting": "dose: 1.32 mg/kg/injection, schedule: Q01DX009 (ip), vehicle: saline", "result": "154 % of control"},
      {"measurement": "T/C", "setting": "dose: 2.0 mg/kg/injection, schedule: Q01DX009 (ip), vehicle: saline", "result": "154 % of control"},
      {"measurement": "T/C", "setting": "dose: 2.0 mg/kg/injection, schedule: Q04DX003 (ip), vehicle: saline", "result": "109 % of control"},
      {"measurement": "T/C", "setting": "dose: 3.0 mg/kg/injection, schedule: Q01DX009 (ip), vehicle: saline", "result": "181 % of control"},
      {"measurement": "T/C", "setting": "dose: 4.0 mg/kg/injection, schedule: Q04DX003 (ip), vehicle: saline", "result": "154 % of control"},
      {"measurement": "T/C", "setting": "dose: 6.0 mg/kg/injection, schedule: Q04DX003 (ip), vehicle: saline", "result": "159 % of control"},
      {"measurement": "T/C", "setting": "dose: 12.5 mg/kg/injection, schedule: Q04DX003 (ip), vehicle: saline", "result": "163 % of control"},
      {"measurement": "T/C", "setting": "dose: 25.0 mg/kg/injection, schedule: Q04DX003 (ip), vehicle: saline", "result": "86 % of control"}
    ]}
  ]
}
